The subject of data set [1] is acetic acid writhing. As to the kind of experiment: Analgesic effect, acetic acid writhing method (Koster et al.). The class given is in vivo, dd strain male mice. Particulars: Mus musculus, oral, 60 minutes before 0.7% acetic acid i.p., number of writhes, dd male mice, read-out: Analgesic Effect Inhibition Rate (%). As for the experimental part:
(3) Analgesic Effect (Acetic Acid Writhing Method) This was done according to the method by Koster, et al Federation Proc. 18, 412 (1959)]. The animals to be tested were groups of 10 dd strain male nice weighing 20 ± 1 g. The compound to be tested .was administered orally, and 60 minutes after the administration, 0.2 ml of a 0.7% acetic acid solution ,vas administered intraperitoneally. For a period of 10 minutes from […] minutes after the administration of said acetic acid solution, the number of writhes was measured and the average number was determined. The unhibition rate (%) was calculated from the following equation. [formula] Ec: The average number of writhes in the control group. Et: The average number of writhes in the group to which the compound to be tested was administered.

Data set [2] relates to carrageenin-induced paw edema. Kind of data set: Effect on carrageenin-induced paw edema (anti-inflammatory effect), method of Winter et al. The data set is classed as in vivo, Wistar strain male rats. To be noted: Rattus norvegicus, oral, 1 hour before 1% carrageenin, paw volume 3 hours after injection, Wistar male rats, read-out: Anti-inflammatory Effect Inhibition Rate (%). As for the experimental part:
(2) Effect on carrageenin-induced paw edema (Anti-inflammatory Effect)
This test was conducted according to the method by Winter et al.[Winter C.A. et al.: Proc. Soc. Exptl.
As the animals to be tested, groups of 5 - 10 Wistar strain male rats weighing 140 ± 10 g were used, and a 1% carrageenin solution was employed as the phlogistic agent. The compound to be tested was - orally administered to the animals, and an hour later, 0.1 ml of the phlogistic agent was injected subcutaneously to the right hind paw, to induce edema.
The volume of the paw was measured before the injection of the phlogistic agent and 3 hours after the injection, and based on these volume measurements, the edema rate was calculated from the following equation: [formula]
Vn: The volume before the phlogistic agent treatment.
Vt: The volume after the phlogistic agent treatment.
The effect was determined, compared with the control group, the group to which the compound to be tested was not administered and expressed in terms of the inhibition rate of edema. The inhibition rate was calculated from the following equation.
Ec: The average edema rate of the control group.
Et: The average edema rate of the group to which the compound to be tested was administered...

For data set [3], the system named is dd strain male mice. Kind of data set: Acute toxicity, oral administration, deaths counted over one week. The class given is in vivo. To be noted: Dose: 1500mg/kg, observed for a week.

The results in this text go back to patent EP0058009A1, “Novel benzanilide derivatives and pharmaceutical compositions containing them” (KYOWA HAKKO KOGYO CO., LTD., priority 1981, dated 1982).

Consider `COc1ccc(C(=O)Nc2ccc(Cl)cc2C(F)(F)F)cc1N` [Compound 4, 3-Amino-2'-trifluoro-methyl-4'-chloro-4-methoxy-benzanilide], for which the inhibition in vivo at 100 mg/kg in data set [1] amounted to 34.8%; in data set [2], 8.7%. The “Acute Toxicity Nos. of Deaths/ Nos. of Tests” value in data set [3] is on record as 0/6.
The like results for `COc1ccc(C(=O)Nc2cccc(F)c2)cc1N` [Compound 1, 3-Amino-3'-fluoro-4-methoxy-benzanilide] were, in that order, 41.9%, 64.3% and 0/6.
Regarding `COc1ccc(C(=O)Nc2ccccc2)cc1N` [Compound 6, 3-Amino-4-methoxy-benzanilide], the inhibition in vivo at 100 mg/kg came out at 43.4% in data set [1] and 55.9% in data set [2]. In addition, in data set [3], the “Acute Toxicity Nos. of Deaths/ Nos. of Tests” value is reported as 0/5.
The like results for `COc1cc(C)nc(-n2nc(C)cc2OC)n1` [Mepirizole, 4-methoxy-2-(5-methoxy-3-meLhylpyrazol-1-yl)-6-methylpyrimidine, reference compound] were, in that order, 44.6%, 29.2% and 2/2.
The like results for `COc1ccc(C(=O)Nc2c(C)cccc2C)cc1N` [Compound 8, 3-Amino-2',6'-dimethyl-4-methoxy-benzanilide] were, in that order, 45.7%, 19.5% and 0/6.
The like results for `COc1ccc(C(=O)Nc2cc(C(F)(F)F)cc(C(F)(F)F)c2)cc1N` [Compound 3, 3-Amino-3',5'-ditrifluoro-methyl-4-methoxy-benzanilide] were, in that order, 24.6%, 16.9% and 0/6.
Take `COc1ccc(C(=O)Nc2ccc(Cl)cc2Cl)cc1N` [Compound 7, 3-Amino-2',4'-dichloro-4-methoxy-benzanilide]: the inhibition in vivo at 100 mg/kg in data set [1] was found to be 40.2%; in data set [2], 5.5%. Moreover, the “Acute Toxicity Nos. of Deaths/ Nos. of Tests” value in data set [3] is recorded as 0/6.
The like results for `CC(C)Cc1ccc(C(C)C(=O)O)cc1` (stereo not drawn) [Ibuprofen, α-methyl-4-(2-methylpropyl) benzene acetic acid, reference compound] were, in that order, 16.3%, 68.4% and 2/5.
In the same order, the values of `COc1ccc(C(=O)Nc2cc(C(F)(F)F)ccc2Cl)cc1N` [Compound 5, 3-Amino-2'-chloro-5'-tri-fluoromethyl-4-methoxy-benzanilide] are 52.3%, 0% and 0/6.
`COc1ccc(C(=O)Nc2cccc(C(F)(F)F)c2)cc1N` [Compound 2, 3-Amino-3'-trifluoro-methyl-4-benzanilide]: the inhibition in vivo at 100 mg/kg in data set [1] was determined as 48.8%; in data set [2], 38.8%. The “Acute Toxicity Nos. of Deaths/ Nos. of Tests” value in data set [3] was 0/6.
